The results in this text go back to patent US20160075653A1, “NEMATICIDAL N-(PHENYLCYCLOALKYL)CARBOXAMIDES AND N-(PHENYLCYCLOALKYL)THIOCARBOXAMIDES” (BAYER CROPSCIENCE AKTIENGESELLSCHAFT, priority 2013, published 2016).

A short description of this data set: Measurement of log P values by HPLC on reversed phase columns (methods [a] pH 2.3, [b] pH 2.7, [c] pH 7.8). Type of data set: physicochemical. Here is the method: Measurement of log P-Values:
Measurement of log P Values was Performed According EEC Directive 79/831 Annex V.A8 by HPLC (High Performance Liquid
Chromatography) on reversed phase columns with the following methods: ^[a] Measurement was done at pH 2.3 with 0.1% phosphoric acid and acetonitrile as eluent with a linear gradient from 10% acetonitrile to 95% acetonitrile. ^[b] measurement of LC-MS was done at pH 2.7 with 0.1% formic acid in water and with acetonitrile (contains 0.1% formic acid) as eluent with a linear gradient from 10% acetonitrile to 95% acetonitrile. ^[c] Measurement with LC-MS was done at pH 7.8 with 0.001 molar ammonium hydrogen carbonate solution in water as eluent with a linear gradient from 10% acetonitrile to 95% acetonitrile.
Calibration was done with linear alkan-2-ones (with 3 to 16 carbon atoms) with known log P-values (measurement of log P values using retention times with linear interpolation between successive alkanones). Lambda-max-values were determined using UV-spectra from 200 nm to 400 nm and the peak values of the chromatographic signals.

Setting [1] is: HPLC on reversed phase columns, method [b], pH 2.7.
The mark [2] stands for this setting: HPLC reversed phase, method [b] (pH 2.7).
[3] abbreviates: HPLC on reversed phase column, method [b], pH 2.7.

For the molecule `CC(F)c1nn(C)cc1C(=O)NC1CCCC1c1ccc(F)c(F)c1` (mixture of isomers) [Example 126], the logP under setting [1] is 2.84^[b]. Still for that read-out and setting: the value for `O=C(N[C@@H]1CCC[C@@H]1c1ccc(F)c(F)c1)c1ccsc1I` (relative stereo) [Compound 56] was 3.29^[b]. Turning to `O=C(N[C@@H]1CCC[C@@H]1c1ccccc1F)c1ccc(I)s1` (relative stereo) [Compound 337], the logP runs as follows: under setting [2], 3.70^[b]; (HPLC reversed phase, method [c] pH 7.8) 3.58^[c];. Regarding `O=C(N[C@@H]1CC[C@@H]1c1c(F)cccc1F)c1ncccc1Cl` (relative stereo) [Compound 438], under setting [2], the logP was 2.73^[b]. Turning to `O=C(N[C@@H]1CC[C@H]1c1ccc(F)cc1C(F)(F)F)c1ccccc1I` (relative stereo) [Compound 502], the logP under setting [2] was 3.76^[b]. Consider `O=C(N[C@@H]1CC[C@@H]1c1ccccc1Cl)c1sccc1I` (relative stereo) [Compound 546], for which the logP under setting [2] is 3.72^[b]. Still for that read-out and setting: as for `O=C(N[C@@H]1C[C@@H]1c1ccc(Cl)cc1Cl)c1ccccc1I` (relative stereo) [Compound 578], the figure is 3.43^[b]; as for `O=C(N[C@@H]1C[C@@H]1c1ccc(Cl)cc1Cl)c1ccccc1Cl` (relative stereo) [Compound 580], 3.27^[b]. Take `O=C(N[C@@H]1C[C@@H]1c1ccc(Cl)cc1Cl)c1c(F)cccc1F` (relative stereo) [Compound 581]: the logP under setting [2] was 3.44^[b]. On to `O=C(N[C@@H]1C[C@@H]1c1ccc(Cl)cc1Cl)c1sccc1I` (relative stereo) [Compound 582], for which the logP under setting [2] is 3.78^[b]. Take `O=C(N[C@@H]1CC[C@H]1c1cccc(F)c1C(F)(F)F)c1ccccc1Cl` (relative stereo) [Compound 598]: the logP under setting [3] is 3.50^[b]. On the same count and under the same terms, the value for `O=C(N[C@@H]1CC[C@@H]1c1cccc(F)c1C(F)(F)F)c1ccccc1Br` (relative stereo) [Compound 654] was 3.30^[b]. As to `O=C(N[C@@H]1C[C@]1(F)c1ccc(Cl)cc1)c1c(F)cccc1F` (relative stereo) [Compound 750, rel-N-[(1R,2S)-2-(4-chlorophenyl)-2-fluorocyclopropyl]-2,6-difluorobenzamide], where the note is “HPLC-MS, method [b]: pH 2.7, 0.1% formic acid / acetonitrile; read-out: log P^b)”, the chromatographic logP is 2.69. As to `COc1nn(C)cc1C(=O)N[C@@H]1C[C@H]1c1ccccc1` (relative stereo) [Example 41], the logP under setting [1] is 2.03^[b]. For `Cc1nn(C)c(F)c1C(=O)N[C@@H]1C[C@H]1c1ccccc1` (relative stereo) [Example 42], under setting [1], the logP is 1.99^[b]. Turning to `CCOc1nn(C)cc1C(=O)N[C@@H]1C[C@H]1c1ccccc1` (relative stereo) [Example 43], under setting [1], the logP was 2.36^[b]. Take `O=C(N[C@@H]1C[C@H]1c1ccccc1)c1ccccc1I` (relative stereo) [Example 44]: the logP under setting [1] is 2.93^[b]. Same read-out and setting: as for `O=C(N[C@@H]1C[C@H]1c1ccccc1)c1ccccc1Br` (relative stereo) [Example 45], the figure is 2.79^[b]. In the case of `O=C(N[C@@H]1C[C@H]1c1ccccc1)c1ccccc1Cl` (relative stereo) [Example 46], the logP under setting [1] is 2.68^[b]. In the case of `O=C(N[C@@H]1C[C@H]1c1ccccc1)c1c(Cl)cccc1Cl` (relative stereo) [Example 47], under setting [1], the logP was 2.99^[b].

Turning to `O=C(N[C@@H]1C[C@H]1c1ccccc1Cl)c1c(Cl)cccc1Cl` (relative stereo) [Example 50], the logP under setting [1] was 3.32^[b]. On the same count and under the same terms, the value for `O=C(N[C@@H]1C[C@H]1c1ccccc1Cl)c1ccccc1C(F)(F)F` (relative stereo) [Example 51] was 3.31^[b]. Take `Cn1cc(C(=O)N[C@@H]2CCC[C@@H]2c2ccc(F)c(F)c2)c(C(F)F)n1` (relative stereo) [Example 52]: the logP under setting [1] is 2.64^[b]. Consider `CC(F)c1nn(C)cc1C(=O)N[C@@H]1CCC[C@@H]1c1ccc(F)c(F)c1` (relative stereo) [Example 53], for which, under setting [1], the logP is 2.62^[b]. For the molecule `CCOc1nn(C)cc1C(=O)N[C@@H]1CCC[C@@H]1c1ccc(F)c(F)c1` (relative stereo) [Example 54], the logP under setting [1] is 2.78^[b]. Turning to `Cc1nc(C(F)(F)F)c(C(=O)N[C@@H]2CCC[C@@H]2c2ccc(F)c(F)c2)s1` (relative stereo) [Example 55], under setting [1], the logP is 3.19^[b]. The same measure, in the same setting: the value for `O=C(N[C@@H]1CCC[C@@H]1c1ccc(F)c(F)c1)C1=C(C(F)(F)F)OCCS1` (relative stereo) [Example 57] was 3.19^[b]; that for `O=C(N[C@@H]1CCC[C@@H]1c1ccc(F)c(F)c1)c1ccccc1I` (relative stereo) [Example 58] was 3.31^[b]; that for `Cc1occc1C(=O)N[C@@H]1CCC[C@@H]1c1ccc(F)c(F)c1` (relative stereo) [Example 59] was 3.06^[b]. For `Cc1nocc1C(=O)N[C@@H]1CCC[C@H]1c1ccc(F)c(F)c1` (relative stereo) [Example 60], the logP under setting [1] was 2.78^[b]. Turning to `Cc1nocc1C(=O)N[C@@H]1CCC[C@@H]1c1ccc(F)c(F)c1` (relative stereo) [Example 61], the logP under setting [1] was 2.69^[b]. The same measure, in the same setting: as for `Cc1ncccc1C(=O)N[C@@H]1CCC[C@@H]1c1ccc(F)c(F)c1` (relative stereo) [Example 62], the figure is 1.67^[b]. Regarding `Cc1ncccc1C(=O)N[C@@H]1CCC[C@H]1c1ccc(F)c(F)c1` (relative stereo) [Example 63], the logP under setting [1] was 1.75^[b]. In the case of `Cc1cccnc1C(=O)N[C@@H]1CCC[C@@H]1c1ccc(F)c(F)c1` (relative stereo) [Example 64], the logP under setting [1] is 3.31^[b]. The same measure, in the same setting: as for `Cc1ncncc1C(=O)N[C@@H]1CCC[C@@H]1c1ccc(F)c(F)c1` (relative stereo) [Example 65], the figure is 2.15^[b]. Regarding `O=C(N[C@@H]1CCC[C@@H]1c1ccc(F)c(F)c1)c1ccccc1F` (relative stereo) [Example 66], under setting [1], the logP is 3.33^[b].

`Cc1cc(C(=O)N[C@@H]2CCC[C@@H]2c2ccc(F)c(F)c2)c(C)o1` (relative stereo) [Example 67]: the logP under setting [1] was 3.35^[b]. Same read-out and setting: as for `O=C(N[C@@H]1CCC[C@@H]1c1ccc(F)c(F)c1)c1cccnc1F` (relative stereo) [Example 68], the figure is 2.76^[b]; as for `O=C(N[C@@H]1CCC[C@@H]1c1ccc(F)c(F)c1)c1ccncc1F` (relative stereo) [Example 69], 2.59^[b].

As for `Cc1ccsc1C(=O)N[C@@H]1CCC[C@@H]1c1ccc(F)c(F)c1` (relative stereo) [Example 70], under setting [1], the logP was 3.39^[b]. Take `Cc1ncc(C(=O)N[C@@H]2CCC[C@@H]2c2ccc(F)c(F)c2)s1` (relative stereo) [Example 71]: the logP under setting [1] is 2.57^[b]. Still for that read-out and setting: as for `Cc1nnsc1C(=O)N[C@@H]1CCC[C@@H]1c1ccc(F)c(F)c1` (relative stereo) [Example 72], the figure is 2.86^[b]; as for `N#Cc1ccccc1C(=O)N[C@@H]1CCC[C@@H]1c1ccc(F)c(F)c1` (relative stereo) [Example 73], 3.04^[b]; as for `N#Cc1ncccc1C(=O)N[C@@H]1CCC[C@@H]1c1ccc(F)c(F)c1` (relative stereo) [Example 74], 3.21^[b].

With `COc1ccccc1C(=O)N[C@@H]1CCC[C@@H]1c1ccc(F)c(F)c1` (relative stereo) [Example 75], the logP under setting [1] is 3.39^[b].

As to `COc1nn(C)cc1C(=O)N[C@@H]1CCC[C@@H]1c1ccc(F)c(F)c1` (relative stereo) [Example 76], the logP under setting [1] is 2.64^[b]. For `Cc1nn(C)c(F)c1C(=O)N[C@@H]1CCC[C@@H]1c1ccc(F)c(F)c1` (relative stereo) [Example 77], the logP under setting [1] was 2.60^[b]. Same read-out and setting: as for `COc1cscc1C(=O)N[C@@H]1CCC[C@@H]1c1ccc(F)c(F)c1` (relative stereo) [Example 78], the figure is 3.29^[b]; as for `CC1=C(C(=O)N[C@@H]2CCC[C@@H]2c2ccc(F)c(F)c2)SCCO1` (relative stereo) [Example 79], 3.15^[b]; as for `O=C(N[C@@H]1CCC[C@@H]1c1ccc(F)c(F)c1)c1sccc1Cl` (relative stereo) [Example 80], 3.72^[b]. Same read-out and setting: as for `CCCc1nn(C)cc1C(=O)N[C@@H]1CCC[C@@H]1c1ccc(F)c(F)c1` (relative stereo) [Example 81], the figure is 2.80^[b]; as for `CCc1nn(C)c(F)c1C(=O)N[C@@H]1CCC[C@@H]1c1ccc(F)c(F)c1` (relative stereo) [Example 83], 2.92^[b]. With `CCn1nc(C)c(C(=O)N[C@@H]2CCC[C@@H]2c2ccc(F)c(F)c2)c1F` (relative stereo) [Example 84], under setting [1], the logP is 2.92^[b]. For `Cc1nn(C)c(Cl)c1C(=O)N[C@@H]1CCC[C@@H]1c1ccc(F)c(F)c1` (relative stereo) [Example 85], the logP under setting [1] was 2.82^[b].

As to `CCCc1nn(C)c(F)c1C(=O)N[C@@H]1CCC[C@@H]1c1ccc(F)c(F)c1` (relative stereo) [Example 87], the logP under setting [1] was 3.25^[b].

`O=C(N[C@@H]1CCC[C@@H]1c1ccc(F)c(F)c1)c1ccccc1C(F)(F)F` (relative stereo) [Example 88]: the logP under setting [1] was 3.50^[b]. On the same count and under the same terms, the value for `O=C(N[C@@H]1CCC[C@@H]1c1ccc(F)c(F)c1)c1cnccc1C(F)(F)F` (relative stereo) [Example 89] was 2.92^[b].
